Tested on: ring stage parasites
Assay: Parasite growth potency assay, 72 hours, LDH readout
Format: cell-based
Settings: 72 h, parasite growth measured by LDH assay after 72 hours at 37° C.; 0.7% rings, 2% haematocrit; read-out: EC50
Procedure, shortened: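 Parasite growth was quantified by LDH assay after a −80 °C freeze-thaw. Before that, compound was incubated for 72 h at 37 °C under humidified gas with ring-stage cultures adjusted to 0.7% parasitemia and 2% haematocrit in serum- and albumax-supplemented RPMI-Hepes.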

Compared with `CC(C)[C@]1(C)CC(=O)N([C@H](C)c2cccc(C(=O)N[C@H]3CCOc4ccccc43)c2)C(=N)N1` [Example 25, [(4S)-1-[1-[3-[[(4S)-chroman-4-yl]carbamoyl]phenyl]ethyl]-4-isopropyl-4-methyl-6-oxo-hexahydropyrimidin-2-ylidene]ammonium; 2,2,2-trifluoroacetate], `CC(C)[C@]1(C)CC(=O)N([C@@H](c2cccc(C(=O)N[C@H]3CCOc4ccccc43)c2)C23CC(C2)C3)C(=N)N1` [Example 26, [(4S)-1-[1-bicyclo[1.1.1]pentanyl-[3-[[(4S)-chroman-4-yl]carbamoyl]phenyl]methyl]-4-isopropyl-4-methyl-6-oxo-hexahydropyrimidin-2-ylidene]ammonium; 2,2,2-trifluoroacetate] is 2-fold higher in EC50: 4.4 nM for the first, 8.9 nM for the second. The first is the more potent here.

First: CC(C)[C@]1(C)CC(=O)N([C@H](C)c2cccc(C(=O)N[C@@H]3c4ccccc4C[C@H]3O)c2)C(=N)N1 [Example 27, [(4S)-1-[1-[3-[[(1R,2R)-2-hydroxyindan-1-yl]carbamoyl]phenyl]ethyl]-4-isopropyl-4-methyl-6-oxo-hexahydropyrimidin-2-ylidene]ammonium; 2,2,2-trifluoroacetate]
Second: CC(C)[C@]1(C)CC(=O)N([C@@H](c2cccc(C(=O)N[C@@H]3c4ccccc4C[C@H]3O)c2)C23CC(C2)C3)C(=N)N1 [Example 28, [(4S)-1-[1-bicyclo[1.1.1]pentanyl-[3-[[(1R,2R)-2-hydroxyindan-1-yl]carbamoyl]phenyl]methyl]-4-isopropyl-4-methyl-6-oxo-hexahydropyrimidin-2-ylidene]ammonium; 2,2,2-trifluoroacetate]
The EC50 of the first is 2.9-fold higher: 3.2 nM for the first, 1.1 nM for the second. The second is the more potent here.

Compared with `CC(C)[C@]1(C)CC(=O)N(Cc2cc(F)cc(C(=O)N[C@H]3CCOc4ccccc43)c2)C(=N)N1` [Example 29, [(4S)-1-[[3-[[(4S)-chroman-4-yl]carbamoyl]-5-fluoro-phenyl]methyl]-4-isopropyl-4-methyl-6-oxo-hexahydropyrimidin-2-ylidene]ammonium; 2,2,2-trifluoroacetate], `CC[C@]1(C(C)C)CC(=O)N(Cc2cc(F)cc(C(=O)N[C@H]3CCOc4ccccc43)c2)C(=N)N1` [Example 44, [(4R)-1-[[3-[[(4S)-chroman-4-yl]carbamoyl]-5-fluoro-phenyl]methyl]-4-ethyl-4-isopropyl-6-oxo-hexahydropyrimidin-2-ylidene]ammonium; 2,2,2-trifluoroacetate] is 3-fold lower in EC50: 7.7 nM for the first, 2.6 nM for the second. The second is the more potent here.

`CC(C)[C@]1(C)CC(=O)N(Cc2cc(F)cc(C(=O)N[C@@H]3c4ccccc4C[C@H]3O)c2)C(=N)N1` [Example 30, [(4S)-1-[[3-fluoro-5-[[(1R,2R)-2-hydroxyindan-1-yl]carbamoyl]phenyl]methyl]-4-isopropyl-4-methyl-6-oxo-hexahydropyrimidin-2-ylidene]ammonium; 2,2,2-trifluoroacetate] and `CC[C@]1(C(C)C)CC(=O)N(Cc2cc(F)cc(C(=O)N[C@@H]3c4ccccc4C[C@H]3O)c2)C(=N)N1` [Example 45, [(4R)-4-ethyl-1-[[3-fluoro-5-[[(1R,2R)-2-hydroxyindan-1-yl]carbamoyl]phenyl]methyl]-4-isopropyl-6-oxo-hexahydropyrimidin-2-ylidene]ammonium; 2,2,2-trifluoroacetate] are within 1.5-fold of each other in EC50: 3.1 nM for the first, 2.6 nM for the second.

`CCC1(CC)CC(=O)N([C@H](C)c2cccc(C(=O)N[C@H]3CCOc4ccccc43)c2)C(=N)N1` [Example 31, [1-[1-[3-[[(4S)-chroman-4-yl]carbamoyl]phenyl]ethyl]-4,4-diethyl-6-oxo-hexahydropyrimidin-2-ylidene]ammonium; 2,2,2-trifluoroacetate] and `C=CC[C@H](c1cccc(C(=O)N[C@H]2CCOc3ccccc32)c1)N1C(=N)NC(CC)(CC)CC1=O` [Example 41, [1-[1-[3-[[(4S)-chroman-4-yl]carbamoyl]phenyl]but-3-enyl]-4,4-diethyl-6-oxo-hexahydropyrimidin-2-ylidene]ammonium; 2,2,2-trifluoroacetate] are within 1.5-fold of each other in EC50: 0.8 nM for the first, 0.9 nM for the second.

First: CCC1(CC)CC(=O)N([C@@H](c2cccc(C(=O)N[C@H]3CCOc4ccccc43)c2)C23CC(C2)C3)C(=N)N1 [Example 32, [1-[1-bicyclo[1.1.1]pentanyl-[3-[[(4S)-chroman-4-yl]carbamoyl]phenyl]methyl]-4,4-diethyl-6-oxo-hexahydropyrimidin-2-ylidene]ammonium; 2,2,2-trifluoroacetate]
Second: CCC1(CC)CC(=O)N([C@@H](c2cccc(C(=O)N[C@@H]3c4ccccc4C[C@H]3O)c2)C23CC(C2)C3)C(=N)N1 [Example 34, [1-[1-bicyclo[1.1.1]pentanyl-[3-[[(1R,2R)-2-hydroxyindan-1-yl]carbamoyl]phenyl]methyl]-4,4-diethyl-6-oxo-hexahydropyrimidin-2-ylidene]ammonium; 2,2,2-trifluoroacetate]
The EC50 of the first is 4-fold higher: 2 nM for the first, 0.5 nM for the second. The second is the more potent here.

Going from `CCC1(CC)CC(=O)N([C@H](C)c2cccc(C(=O)N[C@@H]3c4ccccc4C[C@H]3O)c2)C(=N)N1` [Example 33, [4,4-diethyl-1-[1-[3-[[(1R,2R)-2-hydroxyindan-1-yl]carbamoyl]phenyl]ethyl]-6-oxo-hexahydropyrimidin-2-ylidene]ammonium; 2,2,2-trifluoroacetate] to `CCC1(CC)CC(=O)N(Cc2cc(C(=O)N[C@@H]3c4ccccc4C[C@H]3O)ccn2)C(=N)N1` [Example 38, [4,4-diethyl-1-[[4-[[(1R,2R)-2-hydroxyindan-1-yl]carbamoyl]-2-pyridyl]methyl]-6-oxo-hexahydropyrimidin-2-ylidene]ammonium; 2,2,2-trifluoroacetate], the EC50 rises from 2.8 nM to 31.3 nM (11-fold).

Compared with `CCC1(CC)CC(=O)N(Cc2cc(F)cc(C(=O)N[C@@H]3c4ccccc4C[C@H]3O)c2)C(=N)N1` [Example 35, [4,4-diethyl-1-[[3-fluoro-5-[[(1R,2R)-2-hydroxyindan-1-yl]carbamoyl]phenyl]methyl]-6-oxo-hexahydropyrimidin-2-ylidene]ammonium; 2,2,2-trifluoroacetate], `CC[C@]1(CC(C)C)CC(=O)N(Cc2cc(F)cc(C(=O)N[C@@H]3c4ccccc4C[C@H]3O)c2)C(=N)N1` [Example 47, [(4S)-4-ethyl-1-[[3-fluoro-5-[[(1R,2R)-2-hydroxyindan-1-yl]carbamoyl]phenyl]methyl]-4-isobutyl-6-oxo-hexahydropyrimidin-2-ylidene]ammonium; 2,2,2-trifluoroacetate] is 3.2-fold higher in EC50: 2 nM for the first, 6.5 nM for the second. The first is the more potent here.

`CCC1(CC)CC(=O)N(Cc2ccnc(C(=O)N[C@@H]3c4ccccc4C[C@H]3O)c2)C(=N)N1` [Example 36, [4,4-diethyl-1-[[2-[[(1R,2R)-2-hydroxyindan-1-yl]carbamoyl]-4-pyridyl]methyl]-6-oxo-hexahydropyrimidin-2-ylidene]ammonium; 2,2,2-trifluoroacetate] and `CCC1(CC)CC(=O)N(Cc2cccc(C(=O)N[C@@H]3c4ccccc4C[C@H]3O)n2)C(=N)N1` [Example 37, [4,4-diethyl-1-[[6-[[(1R,2R)-2-hydroxyindan-1-yl]carbamoyl]-2-pyridyl]methyl]-6-oxo-hexahydropyrimidin-2-ylidene]ammonium; 2,2,2-trifluoroacetate] are within 1.5-fold of each other in EC50: 16.8 nM for the first, 14.4 nM for the second.

Going from `CCC1(CC)CC(=O)N(Cc2cncc(C(=O)N[C@@H]3c4ccccc4C[C@H]3O)c2)C(=N)N1` [Example 39, [4,4-diethyl-1-[[5-[[(1R,2R)-2-hydroxyindan-1-yl]carbamoyl]pyridin-1-ium-3-yl]methyl]-6-oxo-hexahydropyrimidin-2-ylidene]ammonium; 2,2,2-trifluoroacetate] to `CCC1(CC)NC(=N)N(Cc2cc(F)cc(C(=O)N[C@@H]3c4ccccc4C[C@H]3O)c2)C(=O)C1C` (stereo partly drawn) [Example 48, [4,4-diethyl-1-[[3-fluoro-5-[[(1R,2R)-2-hydroxyindan-1-yl]carbamoyl]phenyl]methyl]-5-methyl-6-oxo-hexahydropyrimidin-2-ylidene]ammonium; 2,2,2-trifluoroacetate], the EC50 falls from 30.4 nM to 5.2 nM (5.8-fold).

First: CCC1(CC)CC(=O)N([C@H](Cc2ccccc2)c2cccc(C(=O)N[C@H]3CCOc4ccccc43)c2)C(=N)N1 [Example 40, [1-[1-[3-[[(4S)-chroman-4-yl]carbamoyl]phenyl]-2-phenyl-ethyl]-4,4-diethyl-6-oxo-hexahydropyrimidin-2-ylidene]ammonium; 2,2,2-trifluoroacetate]
Second: CCC[C@H](c1cc(C(=O)N[C@H]2CCOc3ccccc32)ccn1)N1C(=N)NC(CC)(CC)CC1=O [Example 49A, [1-[1-[4-[[(4S)-chroman-4-yl]carbamoyl]pyridin-1-ium-2-yl]butyl]-4,4-diethyl-6-oxo-hexahydropyrimidin-2-ylidene]ammonium; 2,2,2-trifluoroacetate]
The EC50 of the first is 14-fold higher: 9.7 nM for the first, 0.7 nM for the second. The second is the more potent here.

`CCC1(CC)NC(=N)N(Cc2cc(F)cc(C(=O)N[C@H]3CCOc4ccccc43)c2)C(=O)C1C` (stereo partly drawn) [Example 42, [1-[[3-[[(4S)-chroman-4-yl]carbamoyl]-5-fluoro-phenyl]methyl]-4,4-diethyl-5-methyl-6-oxo-hexahydropyrimidin-2-ylidene]ammonium; 2,2,2-trifluoroacetate] and `CC[C@]1(CC(C)C)CC(=O)N(Cc2cc(F)cc(C(=O)N[C@H]3CCOc4ccccc43)c2)C(=N)N1` [Example 46, [(4S)-1-[[3-[[(4S)-chroman-4-yl]carbamoyl]-5-fluoro-phenyl]methyl]-4-ethyl-4-isobutyl-6-oxo-hexahydropyrimidin-2-ylidene]ammonium; 2,2,2-trifluoroacetate] are within 1.5-fold of each other in EC50: 10.3 nM for the first, 10.4 nM for the second.

Compound `CCC[C@@H](c1cc(C(=O)N[C@H]2CCOc3ccccc32)ccn1)N1C(=N)NC(CC)(CC)CC1=O` [Example 49B, [1-[1-[4-[[(4S)-chroman-4-yl]carbamoyl]pyridin-1-ium-2-yl]butyl]-4,4-diethyl-6-oxo-hexahydropyrimidin-2-ylidene]ammonium; 2,2,2-trifluoroacetate] has an EC50 of 85 nM.

Same assay, conditions: parasite growth measured by LDH assay after 72 hours at 37° C.; 0.7% rings, 2% haematocrit; trifluoroacetate; read-out: EC50

Work on `CCC1(CC)NC(=N)N(Cc2cc(F)cc(C(=O)N[C@H]3CCOc4ccccc43)c2)C(=O)C1C` (stereo partly drawn) [Example 43, [1-[[3-[[(4S)-chroman-4-yl]carbamoyl]-5-fluoro-phenyl]methyl]-4,4-diethyl-5-methyl-6-oxo-hexahydropyrimidin-2-ylidene]ammonium; 2,2,2-trifluoroacetate] yielded an EC50 of 7.2 nM.

Reference: patent US12629374B2, “Antimalarial agents” (Merck Sharp & Dohme LLC, priority 2020, dated 2026)
